From paper PMC6600163, “Inhibitory Effects of Diketopiperazines from Marine-Derived Streptomyces puniceus on the Isocitrate Lyase of Candida albicans” (Molecules, 2019) come the findings set out here.

Experiment [1] has as its system C. albicans SC5314. The experiment is described as follows: In vitro growth assay (MIC) in YNB broth. Type of experiment: cell-based, Candida albicans. The conditions noted are these: 28 °C. The text has this: (§1) The glyoxylate cycle is necessary for virulence in C. albicans, which can survive in macrophages under abundant carbon sources, such as fatty acids or their breakdown products. When C. albicans is phagocytosed by a macrophage, the shift in metabolism from glycolysis to the glyoxylate cycle is activated so that the cells can utilize C2 carbon sources. It was expected that ICL inhibitors would reduce the nutrient uptake capacity and impede survival of the pathogen in the macrophage. To determine whether cyclo(L-Phe-L-Val) affects C2 substrate use, C. albicans strains SC5314, ATCC10231, ATCC10259, ATCC11006, and ATCC18804 were grown in YNB liquid broth containing either 2% glucose or 2% acetate as the sole carbon source.
(§2) C. albicans strains were cultured in YNB broth containing 2% glucose at 28 °C for 24 h, centrifuged at 15,000× g for 1 min, and washed twice with sterile distilled water. […] Additional DMSO was added to the medium at a final concentration of 0.5%. The fungal strain culture (20 μL) was poured into a 96-well assay plate at a final concentration of 1 × 10^4 cells/mL and total volume of 100 μL. The culture plates were incubated at 28 °C for 3 days. The positive control was amphotericin B, which is a known antifungal compound.

Experiment [2] addresses T1, recombinant ICL (isocitrate lyase) from C. albicans ATCC10231 (Candida albicans, UniProt Q9P8Q7).
T1 construct: made in house
The experiment in a line: biochemical. As for the experimental part: Isolated diketopiperazines were tested for ICL inhibitory activity according to methods reported previously. […] To determine the type of inhibition, kinetic analysis was performed with cyclo(L-Phe-L-Val) (inhibitor) and phenylhydrazine […]. The inhibitor constant (Ki) was calculated from the Dixon plot.
S. puniceus Act1085 was used as the diketopiperazine-producing strain. C. albicans SC5314 (ATCC MYA-2876) (wild-type), MRC10 (Δicl) (icl-deletion mutant), MRC11 (Δicl + ICL) (icl-deletion mutant), […], ATCC18804, and ATCC11006 were used for the growth assay. C. albicans ATCC10231 was used to obtain recombinant ICL. Prof. Michael C. Lorenz (University of Texas Health Science Center, Houston, TX, USA) kindly provided the ICL mutants.
Before evaluation of the ICL inhibitory activity of the test compounds, the recombinant ICL from C. albicans was prepared according to methods described in a previous report. The ICL inhibitory activity of the test compounds was determined according to a previously described method. The ICL inhibition assay is based on the principle that glyoxylate phenylhydrazone forms in the reaction reagent after treatment with isocitrate and phenylhydrazine. Each test compound was dissolved in DMSO. The reaction mixture consisted of 20 mM sodium phosphate buffer (pH 7.0), 1.27 mM threo-DL(+)isocitrate, 3.75 mM MgCl2, 4.1 mM phenylhydrazine, and 2.5 μg/mL purified ICL and was incubated with or without the test compounds at a concentration range of 1–128 μg/mL at 37 °C for 30 min. The increase in intensity of absorbance resulting from the formation of glyoxylate phenylhydrazone was observed using a spectrophotometer (Shimadzu) at a wavelength of 324 nm. The inhibitory activity of the test compound was calculated relative to that of the DMSO control (n = 3). The methods for determination of the IC50 value and ICL enzyme concentrations have been described in previous reports. A known ICL inhibitor, 3-nitropropionate, was used as a reference control.

The subject of experiment [3] is C. albicans ATCC11006. The experiment in a line: In vitro growth assay (MIC) in YNB broth. Type of experiment: cell-based. Particulars: Candida albicans, ATCC11006, 72 h, 28 °C.
Excerpt: as §1, §2

The subject of experiment [4] is C. albicans ATCC10259. The experiment is described as follows: In vitro growth assay (MIC) in YNB broth. The conditions noted are these: Candida albicans, ATCC10259, 72 h, 28 °C. Type of experiment: cell-based.
Excerpt: as §1, §2

For experiment [5], the system named is C. albicans ATCC10231. The experiment in a line: In vitro growth assay (MIC) in YNB broth. Type of experiment: cell-based. The conditions noted are these: Candida albicans, ATCC10231, 72 h, 28 °C.
Excerpt: as §1, §2

Experiment [6] has as its system C. albicans ATCC18804. The experiment in a line: In vitro growth assay (MIC) in YNB broth. Type of experiment: cell-based. Particulars: Candida albicans, ATCC18804, 72 h, 28 °C.
Excerpt: as §1, §2

The test system of experiment [7] is C. albicans strains SC5314, ATCC10231, ATCC10259, ATCC11006, and ATCC18804. The experiment in a line: In vitro growth assay, summary over five strains. Type of experiment: cell-based, Candida albicans.
Excerpt: as §1, §2

The test system of experiment [8] is icl mRNA expression. The experiment in a line: icl expression analysis by semi-quantitative RT-PCR. Particulars: SC5314 and MRC11, 2% potassium acetate plus 8, 16, 32 μg/mL compound, 4 h, 28 °C. Type of experiment: cell-based, Candida albicans. As to the method: (§3) To determine whether the cell phenotype of the icl-deletion mutant is affected by the presence of cyclo(L-Phe-L-Val), a growth assay was conducted using C. albicans SC5314 (wild type) and two icl-deletion mutants (MRC10 and MRC11). After pre-culture, these strains were streaked onto YNB agar containing 2% glucose or 2% potassium acetate with or without 32 μg/mL cyclo(L-Phe-L-Val). All strains grew normally on both the plates with glucose and with glucose plus the compound. […] We further conducted semi-quantitative reverse-transcription (RT)-PCR to assess the effects of cyclo(L-Phe-L-Val) on ICL expression. No ICL-specific PCR product was detected in the cultures when SC5314 and MRC11 were grown in YNB liquid broth containing glucose. […] GPDH expression was detected in all treatments regardless of cyclo(L-Phe-L-Val) exposure.
(§4) Figure 3 Analysis of growth phenotypes and icl mRNA expression. […] Total RNA was prepared from these cells, and icl mRNA expression was analyzed by semi-quantitative RT-PCR. The GPDH housekeeping gene was evaluated as a loading control.
(§5) C. albicans SC5314 (wild type) and icl-deletion mutants (MRC10 and MRC11) were cultured in YNB broth containing 2% glucose at 28 °C on a rotary shaker for 24 h. […] RNA extraction, cDNA synthesis, and semi-quantitative RT-PCR were performed using previously described methods. […]

In experiment [9] the test system is C. albicans SC5314 (wild type) and icl-deletion mutants (MRC10 and MRC11). The experiment in a line: Growth phenotype on YNB agar plates. Type of experiment: cell-based, Candida albicans. The conditions noted are these: 2 days, 28 °C. As for the experimental part:
as §3, §4, §5

The mark [10] stands for this setting: Candida albicans, SC5314, 72 h, 2% glucose, read-out: MIC.
Where [11] appears, read: Candida albicans, SC5314, 72 h, 2% potassium acetate, read-out: MIC.
Where [12] appears, read: Candida albicans, SC5314, 2% glucose, 72 h, read-out: MIC.
Setting [13] is: ICL IC50, 37 °C, 30 min, pH 7.0, n = 3.

In brackets after ≈: the same amount, converted by molar mass. Several values for one entry are separate records, joined by “and”; a condition that tells them apart may be missing. Identical values can stand only once. Entries after “also recorded” stand apart in the source; their conditions may differ. Like-named read-outs stand apart in the source and are kept apart here. Some results are limits rather than exact numbers.

T1 sequence (Q9P8Q7 whole entry): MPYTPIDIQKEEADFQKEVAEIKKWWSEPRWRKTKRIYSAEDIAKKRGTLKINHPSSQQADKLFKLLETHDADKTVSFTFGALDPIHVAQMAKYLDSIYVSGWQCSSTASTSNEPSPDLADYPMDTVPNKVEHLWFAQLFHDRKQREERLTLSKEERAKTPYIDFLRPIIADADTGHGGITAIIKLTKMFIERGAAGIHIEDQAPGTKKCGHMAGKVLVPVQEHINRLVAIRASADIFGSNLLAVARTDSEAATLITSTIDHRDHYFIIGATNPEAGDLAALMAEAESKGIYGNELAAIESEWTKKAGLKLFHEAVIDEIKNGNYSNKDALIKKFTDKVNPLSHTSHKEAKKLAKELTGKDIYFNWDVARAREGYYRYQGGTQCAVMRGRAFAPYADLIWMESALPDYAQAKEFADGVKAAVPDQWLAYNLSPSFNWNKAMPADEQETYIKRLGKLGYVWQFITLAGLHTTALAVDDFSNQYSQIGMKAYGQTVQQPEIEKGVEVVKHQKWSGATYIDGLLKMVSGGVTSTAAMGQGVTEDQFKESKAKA

In turn, `O=C(O)CC[N+](=O)[O-]` [3-Nitropropionate, reference compound] gave an MIC in experiment [1] (2% glucose, 72 h) of more than 256 mg/L. The “ICL IC50” value in experiment [2] (37 °C, 30 min, pH 7.0, n = 3) was determined as 1.90 ± 1.57 mg/L. Further, the IC50 in experiment [2] (37 °C, 30 min, pH 7.0, n = 3, read-out: ICL IC50) was determined as 15.9 ± 2.13 µM.

For the compound `C[C@@H]1[C@H](O)[C@@H](C)/C=C/C=C/C=C/C=C/C=C/C=C/C=C/[C@H](O[C@@H]2O[C@H](C)[C@@H](O)[C@H](N)[C@@H]2O)C[C@@H]2O[C@](O)(C[C@@H](O)C[C@@H](O)[C@H](O)CC[C@@H](O)C[C@@H](O)CC(=O)O[C@H]1C)C[C@H](O)[C@H]2C(=O)O` [Amphotericin B, reference compound], the MIC was 0.5 mg/L (≈ 0.541 µM) in experiment [3] (2% glucose); 0.5 mg/L (≈ 0.541 µM) in experiment [3] (2% potassium acetate); 1 mg/L (≈ 1.08 µM) in [4] (2% glucose); 0.5 mg/L (≈ 0.541 µM) in [4] (2% potassium acetate); 1 mg/L (≈ 1.08 µM) in experiment [5] (2% glucose); 0.5 mg/L (≈ 0.541 µM) in experiment [5] (2% potassium acetate). Also, the MIC in experiment [6] (2% glucose) came out at 1 mg/L (≈ 1.08 µM); in experiment [6] (2% potassium acetate) it was 0.5 mg/L (≈ 0.541 µM); in experiment [1] (setting [10]) it was 1 mg/L (≈ 1.08 µM); in experiment [1] (setting [11]) it was 0.5 mg/L (≈ 0.541 µM).

Regarding `O=C1N[C@@H](Cc2ccccc2)C(=O)N2CCC[C@@H]12` [Cyclo(L-Phe-L-Pro), cyclo(L-Phe-L-Pro)], the MIC in experiment [1] (setting [12]) was more than 256 mg/L.

Turning to `CC(C)C1NC(=O)C(Cc2ccccc2)NC1=O` [Cyclo(L-Phe-L-Val), cyclo(L-Phe-L-Val)], the MIC in experiment [7] (Candida albicans, acetate as sole carbon source, range over five strains, read-out: minimum inhibitory concentration) was 32 to 64 mg/L (≈ 130 to 260 µM); in experiment [3] (2% glucose), more than 256 mg/L; in experiment [3] (2% potassium acetate), 32 mg/L (≈ 130 µM); in experiment [4] (2% glucose) it was more than 256 mg/L; in experiment [4] (2% potassium acetate), 64 mg/L (≈ 260 µM); in [5] (2% glucose), more than 256 mg/L. Also, the MIC was 32 mg/L (≈ 130 µM) in experiment [5] (2% potassium acetate); more than 256 mg/L in experiment [6] (2% glucose); 64 mg/L (≈ 260 µM) in experiment [6] (2% potassium acetate); more than 256 mg/L in experiment [1] (setting [10]); 32 mg/L (≈ 130 µM) in experiment [1] (setting [11]). Also, the “inhibitory effect on C. albicans growth” value in experiment [7] (glucose as sole carbon source) is recorded as “no inhibitory effect”. Also, in experiment [8], the “intensity of PCR band of icl product (icl transcript level)” value is reported as “decreased; also recorded: declined”. The Ki in experiment [2] amounted to 64.9 µM. For the same compound, in experiment [2] (setting [13]), the IC50 was 110 µM and 113 µM. For the same compound, the type of inhibition result in experiment [2] (kinetic analysis) is given as “mixed inhibitor”. For the same compound, the “growth on YNB agar” value in experiment [9] (2% glucose plus 32 μg/mL compound) is on record as “grew normally”; in experiment [9] (2% potassium acetate plus 32 μg/mL compound), “none of the tested strains exhibited growth; also recorded: no growth”.

Consider `CC(C)C[C@@H]1NC(=O)[C@@H]2CCCN2C1=O` [Cyclo(L-Pro-L-Leu), cyclo(L-Pro-L-Leu)], for which the MIC in [1] (setting [10]) was more than 256 mg/L. For the same compound, the IC50 in experiment [2] (setting [13]) stood at 534 µM.

Turning to `O=C1NC(Cc2ccc(O)cc2)C(=O)N2CCCC12` [Cyclo(L-Pro-L-Tyr), cyclo(L-Pro-L-Tyr)], the MIC in [1] (setting [12]) was more than 256 mg/L. The IC50 in [2] (setting [13]) is more than 984 µM.

Turning to `CC(C)[C@@H]1NC(=O)[C@@H]2CCCN2C1=O` [Cyclo(L-Pro-L-Val), cyclo(L-Pro-L-Val)], the MIC in experiment [1] (setting [10]) is more than 256 mg/L. For the same compound, in experiment [2] (setting [13]), the IC50 is 516 µM.
